Experimental data: the supplement of paper PMC10883282

Assays:
SK-ES-1 = assay: standardised AUC of viability dose-response curve (72 h) (fraction (0-1)); higher = less growth inhibition (more resistant)
How it was run: (§1)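 Viability of sarcoma cell lines was read with ATPLite after 72 h of triplicate treatment in 384-well plates with 2.5 µl of compound from a compound-plate series of 10 mM to 0.0002 mM. Viability was scaled 1 (full) to 0 (none) and fitted with a four-parameter log-logistic model for each drug and cell line. The reported standardised area under the dose-response curve in log-dose space comes from a modified drexplorer computeAUC, where 1 is no response and 0 is full response.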

SK-LMS-1 = assay: as above
How it was run: as §1

VA-ES-BJ = assay: as above
How it was run: as §1

MES-SA = assay: as above
How it was run: as §1

SYO-1 = assay: as above
How it was run: as §1

HT1080 [1] = assay: as above
How it was run: as §1

SW872 = assay: as above
How it was run: as §1

A204 = assay: as above
How it was run: as §1

RD-ES [2] = assay: as above
How it was run: as §1

RD = assay: as above
How it was run: as §1

HS729 = assay: as above
How it was run: as §1

SW1353 [3] = assay: as above
How it was run: as §1

KHOS-240S [4] = assay: as above
How it was run: as §1

SW982 [5] = assay: as above
How it was run: as §1

G401 = assay: as above
How it was run: as §1

SW684 = assay: as above
How it was run: as §1

KHOS-NP = assay: as above
How it was run: as §1

HT1080 [6] = assay: relative viability vs DMSO control (72 h) (fraction); higher = more viable cells
How it was run: (§2)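 Percent growth from ATPLite readings, averaged over up to triplicate wells, was used as relative viability. Sarcoma cell lines were seeded into 384-well plates for 80–90% confluence, dosed after 24 h, and kept 72 h at 37 °C, 5% CO2. Data were rescaled to a range where 1 is full and 0 is none.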

RD-ES [7] = assay: as above
How it was run: as §2

SW1353 [8] = assay: as above
How it was run: as §2

KHOS-240S [9] = assay: as above
How it was run: as §2

SW982 [10] = assay: as above
How it was run: as §2

CNC(=O)c1nnc(NC(=O)C2CC2)cc1Nc1cccc(-c2ncn(C)n2)c1OC
Settings | standardised AUC
A204 | 0.978
G401 | 0.99
HS729 | 0.956
HT1080 [1] | 0.992
KHOS-240S [4] | 0.976
KHOS-NP | 0.993
MES-SA | 0.984
RD | 0.983
RD-ES [2] | 0.99
SK-ES-1 | 0.958
SK-LMS-1 | 0.988
SW684 | 0.991
SW872 | 0.983
SW982 [5] | 0.983
SW1353 [3] | 0.986
SYO-1 | 0.989
VA-ES-BJ | 0.986

relative viability
Settings | HT1080 [6] | KHOS-240S [9] | RD-ES [7] | SW982 [10] | SW1353 [8]
0.00017 µM | 1.07 | 1.08 | 0.987 | 1.05 | 0.962
0.00051 µM | 1.04 | 1.07 | 1.019 | 1.06 | 0.988
0.00152 µM | 1.05 | 1.059 | 1.01 | 1.05 | 0.968
0.00457 µM | 1.03 | 1.05 | 0.988 | 1.04 | 1
0.01372 µM | 1.02 | 1.07 | 1.02 | 1.05 | 0.985
0.04115 µM | 1.05 | 1.04 | 1.02 | 1.06 | 0.982
0.1235 µM | 1.01 | 1.06 | 1.05 | 1.06 | 0.978
0.3704 µM | 1.042 | 1.07 | 1.06 | 1.07 | 0.964
1.111 µM | 1.1 | 1.08 | 1 | 1.06 | 0.948
3.333 µM | 1.11 | 1.06 | 0.998 | 1.02 | 0.9937
10 µM | 0.995 | 1.03 | 0.847 | 0.722 | 0.911

COc1cc(CCc2cc(NC(=O)c3ccc(N4CC(C)NC(C)C4)cc3)n[nH]2)cc(OC)c1 (centres undefined) [AZD-4547]
Settings | standardised AUC
A204 | 0.742
G401 | 0.729
HS729 | 0.752
HT1080 [1] | 0.965
KHOS-240S [4] | 0.831
KHOS-NP | 0.947
MES-SA | 0.857
RD | 0.948
RD-ES [2] | 0.903
SK-ES-1 | 0.869
SK-LMS-1 | 0.988
SW684 | 0.965
SW872 | 0.934
SW982 [5] | 0.91
SW1353 [3] | 0.873
SYO-1 | 0.698
VA-ES-BJ | 0.987

relative viability
Settings | HT1080 [6] | KHOS-240S [9] | RD-ES [7] | SW982 [10] | SW1353 [8]
0.00017 µM | 1.085 | 1.04 | 0.946 | 1 | 1.06
0.00051 µM | 1.1 | 1.07 | 0.96 | 1 | 1.03
0.00152 µM | 1.08 | 1.036 | 0.959 | 1.02 | 1.03
0.00457 µM | 1.07 | 1.02 | 0.961 | 1.018 | 0.981
0.01372 µM | 1.06 | 1.02 | 0.95 | 0.982 | 0.938
0.04115 µM | 1.01 | 0.9306 | 0.9048 | 1 | 0.886
0.1235 µM | 1.04 | 0.841 | 0.89 | 1 | 0.893
0.3704 µM | 1.08 | 0.784 | 0.871 | 0.995 | 0.849
1.111 µM | 1.04 | 0.72 | 0.808 | 0.922 | 0.821
3.333 µM | 1.04 | 0.619 | 0.6084 | 0.591 | 0.829
10 µM | 0.859 | 0.288 | 0.173 | 0.206 | 0.595

O=C(Nc1ccc(OC(F)(F)Cl)cc1)c1cnc(N2CC[C@@H](O)C2)c(-c2cc[nH]n2)c1 [Asciminib]
relative viability
Settings | HT1080 [6] | KHOS-240S [9] | RD-ES [7] | SW982 [10] | SW1353 [8]
0.00017 µM | 0.999 | 1.04 | 0.944 | 0.974 | 0.946
0.00051 µM | 1.06 | 1.01 | 0.942 | 0.978 | 0.958
0.00152 µM | 1 | 1.02 | 0.927 | 1 | 0.936
0.00457 µM | 0.999 | 1.02 | 0.926 | 0.975 | 0.9604
0.01372 µM | 0.968 | 1.03 | 0.908 | 1.01 | 1.04
0.04115 µM | 1 | 1.009 | 0.895 | 1.01 | 1.1
0.1235 µM | 1.03 | 0.9965 | 0.915 | 1.01 | 1.1
0.3704 µM | 1 | 1.04 | 0.889 | 1.04 | 1.14
1.111 µM | 0.998 | 1.03 | 0.852 | 1.05 | 1.11
3.333 µM | 0.978 | 0.977 | 0.849 | 1.01 | 1.06
10 µM | 0.916 | 0.632 | 0.748 | 0.858 | 0.953

CC#CC(=O)N1CCC[C@H]1c1nc(-c2ccc(C(=O)Nc3ccccn3)cc2)c2c(N)nccn12 [Acalabrutinib]
relative viability
Settings | HT1080 [6] | KHOS-240S [9] | RD-ES [7] | SW982 [10] | SW1353 [8]
0.00017 µM | 1.03 | 1.06 | 0.9637 | 1.048 | 0.974
0.00051 µM | 1.05 | 1.06 | 0.979 | 1.037 | 0.933
0.00152 µM | 1.05 | 1.07 | 0.998 | 1.05 | 0.942
0.00457 µM | 1.036 | 1.09 | 0.982 | 1.05 | 0.946
0.01372 µM | 1.01 | 1.06 | 1 | 1.05 | 0.947
0.04115 µM | 1.029 | 1.06 | 0.99 | 1.034 | 0.944
0.1235 µM | 1.04 | 1.03 | 0.992 | 1.02 | 0.957
0.3704 µM | 1.07 | 1.04 | 1.021 | 1.02 | 0.936
1.111 µM | 1.03 | 1.041 | 1.02 | 1.02 | 0.962
3.333 µM | 1.08 | 1.04 | 0.974 | 1.01 | 0.8927
10 µM | 1.04 | 1.05 | 0.9313 | 0.955 | 0.827

CNC(=O)c1ccccc1Sc1ccc2c(/C=C/c3ccccn3)n[nH]c2c1 [Axitinib]
relative viability
Settings | HT1080 [6] | KHOS-240S [9] | RD-ES [7] | SW982 [10] | SW1353 [8]
0.00017 µM | 1.1 | 1.05 | 0.962 | 0.998 | 1.09
0.00051 µM | 1.06 | 1.02 | 0.92 | 0.997 | 1.1
0.00152 µM | 1.1 | 1.04 | 0.938 | 1 | 1.05
0.00457 µM | 1.1 | 1.05 | 0.947 | 1.02 | 1.04
0.01372 µM | 1.13 | 1.02 | 0.94 | 0.991 | 1.04
0.04115 µM | 1.11 | 1.01 | 0.963 | 1.015 | 1.01
0.1235 µM | 1.08 | 0.964 | 0.938 | 0.9984 | 1.02
0.3704 µM | 1 | 0.802 | 0.871 | 0.96 | 0.908
1.111 µM | 1.04 | 0.791 | 0.85 | 0.922 | 0.94
3.333 µM | 0.979 | 0.495 | 0.729 | 0.409 | 0.789
10 µM | 0.388 | 0.214 | 0.0832 | 0.0993 | 0.288

Cc1[nH]c(/C=C2\C(=O)Nc3ccc(F)cc32)c(C)c1C(=O)NCCN1CCCC1 [Toceranib]
relative viability
Settings | HT1080 [6] | KHOS-240S [9] | RD-ES [7] | SW982 [10] | SW1353 [8]
68 pM | 1.09 | 1.08 | 0.976 | 0.951 | 1.07
0.000203 µM | 1.06 | 1.105 | 0.948 | 0.984 | 1.02
0.0006 µM | 1.116 | 1.08 | 0.964 | 0.962 | 1.02
0.0018 µM | 1.07 | 1.11 | 0.943 | 1.01 | 0.987
0.0055 µM | 1.076 | 1.03 | 0.9493 | 0.985 | 0.994
0.0165 µM | 1.04 | 0.989 | 0.937 | 1 | 0.973
0.0494 µM | 1.09 | 0.974 | 0.924 | 0.929 | 0.964
0.1481 µM | 1 | 0.941 | 0.902 | 0.993 | 0.928
0.444 µM | 1.1 | 0.865 | 0.821 | 0.948 | 0.934
1.333 µM | 1.14 | 0.705 | 0.615 | 0.571 | 0.96
4 µM | 0.868 | 0.491 | 0.176 | 0.31 | 0.893

CCc1cnn2c(NCc3ccc[n+]([O-])c3)cc(N3CCCC[C@H]3CCO)nc12 [Dinaciclib]
relative viability
Settings | HT1080 [6] | KHOS-240S [9] | RD-ES [7] | SW982 [10] | SW1353 [8]
0.00017 µM | 1.04 | 0.954 | 0.937 | 0.9568 | 1.05
0.00051 µM | 1.04 | 0.976 | 0.916 | 0.98 | 1.08
0.00152 µM | 1.04 | 0.966 | 0.912 | 0.984 | 1.07
0.00457 µM | 1.09 | 0.913 | 0.886 | 0.962 | 1.07
0.01372 µM | 0.792 | 0.45 | 0.612 | 0.566 | 0.944
0.04115 µM | 0.193 | 0.214 | 0.0429 | 0.223 | 0.238
0.1235 µM | 0.208 | 0.207 | 0.0102 | 0.239 | 0.238
0.3704 µM | 0.209 | 0.21 | 0.00417 | 0.269 | 0.242
1.111 µM | 0.202 | 0.218 | 0.0013 | 0.267 | 0.235
3.333 µM | 0.216 | 0.213 | -0.0014 | 0.25 | 0.234
10 µM | 0.219 | 0.181 | -0.00263 | 0.227 | 0.219
